The text below walks through data of PMC6576746, “Rational discovery of dual-indication multi-target PDE/Kinase inhibitor for precision anti-cancer therapy using structural systems pharmacology” (PLoS Computational Biology, 2019).

Common to all, as to assay: biochemical
Design in all cases: DiscoverX KinomeScan competition binding assay across human kinases; per cent of control at 10 and 100 uM

The target in test [1] is HIPK1 (Homo sapiens, UniProt Q86Z02). Conditions: competition binding, % of control. On the procedure:
(§1) To validate our computational predictions, we employed a competition binding assay to detect the binding of levosimendan to 425 human kinases as well as its dose-response curve to RIOK1. The proprietary KinomeScan assay was performed by DiscoverX (Fremont, California, USA). The tests were performed at 10 μM and 100 μM concentrations of levosimendan, respectively. Assay results were reported as %control, calculated as follows: %control=(TestCompoundSignal−PositiveControlSignal)/(NegativeControlSignal−PositiveControlSignal)×100 KinomeScan assay across 452 human kinases verified our computational prediction (S1 Table). RIOK1 is one of the strongest inhibited kinases by levosimendan. The percentage control of RIOK1 is 15.0 and 0.0 under the treatment of 10 μM and 100 μM of levosimendan, respectively. […] The percentage controls of five kinases: FLT3, MAP2K5, PIP5K1A, GAK, and KIT are less than 30.0 under the treatment of both 10 μM and 100 μM of levosimendan. Both FLT3 and KIT are tyrosine protein kinases. Their inhibitors have recently been approved for the treatment of Acute Myeloid Leukemia and other types of cancers, but a combination therapy is needed to overcome rapidly emerged drug resistance, thus improve patients’ drug responses. Other kinases inhibited by levosimendan belong to serine/threonine protein kinase family (RIOK1, RIOK3, GAK, and MAP2K5) and lipid kinase family (PIP5K1A). […] As a result, levosimendan may modulate different cancer pathways from those by the tyrosine protein kinase inhibitors, and it could be a novel lead compound for a new anti-cancer therapy to overcome drug resistance of existing drugs or to target different types of cancers through polypharmacology or drug combination.

Test [2] addresses T1, RSK3(Kin.Dom.1-N-terminal) (Homo sapiens, UniProt Q15349).
T1 construct: gene RPS6KA2; Kin.Dom.1-N-terminal
The settings on record: competition binding, % of control; read-out: Percent Control (100 uM Levosimendan). Here is the method:
as §1

Test [3] deals with TEC (Homo sapiens, UniProt P42680). The settings on record: competition binding, % of control; read-out: Percent Control (100 uM Levosimendan). Here is the method:
as §1

Test [4] concerns the target PDGFRA (Homo sapiens, UniProt P16234). Conditions: competition binding, % of control. Here is the method:
as §1

The target of test [5] is NEK9 (Homo sapiens, UniProt Q8TD19). The settings on record: competition binding, % of control; read-out: Percent Control (100 uM Levosimendan). Here is the method:
as §1

Test [6] deals with AAK1 (Homo sapiens, UniProt Q2M2I8). The settings on record: competition binding, % of control. Here is the method:
as §1

For test [7], the target named is NEK1 (Homo sapiens, UniProt Q96PY6). Conditions: competition binding, % of control; read-out: Percent Control (100 uM Levosimendan). On the procedure: as §1
Test [8] has as its target WNK3 (Homo sapiens, UniProt Q9BYP7). Conditions: competition binding, % of control; read-out: Percent Control (100 uM Levosimendan). On the procedure:
as §1

The target in test [9] is ROCK1 (Homo sapiens, UniProt Q13464). The settings on record: competition binding, % of control; read-out: Percent Control (100 uM Levosimendan). Here is the method: as §1
Test [10] has as its target T2, ADCK4 (Homo sapiens, UniProt Q96D53).
T2 construct: gene COQ8B
Conditions: competition binding, % of control; read-out: Percent Control (100 uM Levosimendan). On the procedure: as §1

For test [11], the target named is T3, JNK1 (Homo sapiens, UniProt P45983).
T3 construct: gene MAPK8
Conditions: competition binding, % of control; read-out: Percent Control (100 uM Levosimendan). On the procedure:
as §1

In test [12] the target is WEE2 (Homo sapiens, UniProt P0C1S8). Conditions: competition binding, % of control; read-out: Percent Control (100 uM Levosimendan). Here is the method:
as §1

Test [13] deals with RET(V804L) (Homo sapiens, UniProt P07949, V804L). Conditions: competition binding, % of control; read-out: Percent Control (100 uM Levosimendan). Here is the method: as §1
The target of test [14] is T4, YANK2 (Homo sapiens, UniProt Q9NY57).
T4 construct: gene STK32B
The settings on record: competition binding, % of control; read-out: Percent Control (100 uM Levosimendan). On the procedure: as §1

The target in test [15] is PIK3CA(M1043I) (Homo sapiens, UniProt P42336, M1043I). The settings on record: competition binding, % of control; read-out: Percent Control (100 uM Levosimendan). Here is the method:
as §1

The target of test [16] is SNRK (Homo sapiens, UniProt Q9NRH2). Conditions: competition binding, % of control; read-out: Percent Control (100 uM Levosimendan). Here is the method:
as §1

Test [17] has as its target T5, ABL1(Q252H)-nonphosphorylated (Homo sapiens, UniProt P00519, Q252H).
T5 construct: nonphosphorylated
Conditions: competition binding, % of control; read-out: Percent Control (100 uM Levosimendan). Here is the method:
as §1

For test [18], the target named is ERBB4 (Homo sapiens, UniProt Q15303). Conditions: competition binding, % of control; read-out: Percent Control (100 uM Levosimendan). Here is the method:
as §1

Test [19] addresses ALK(C1156Y) (Homo sapiens, UniProt Q9UM73, C1156Y). The settings on record: competition binding, % of control; read-out: Percent Control (100 uM Levosimendan). On the procedure: as §1
Setting [20] is: read-out: Percent Control (10 uM Levosimendan).
[21] abbreviates: read-out: Percent Control (100 uM Levosimendan).

AAK1, sequence (Q2M2I8 whole entry): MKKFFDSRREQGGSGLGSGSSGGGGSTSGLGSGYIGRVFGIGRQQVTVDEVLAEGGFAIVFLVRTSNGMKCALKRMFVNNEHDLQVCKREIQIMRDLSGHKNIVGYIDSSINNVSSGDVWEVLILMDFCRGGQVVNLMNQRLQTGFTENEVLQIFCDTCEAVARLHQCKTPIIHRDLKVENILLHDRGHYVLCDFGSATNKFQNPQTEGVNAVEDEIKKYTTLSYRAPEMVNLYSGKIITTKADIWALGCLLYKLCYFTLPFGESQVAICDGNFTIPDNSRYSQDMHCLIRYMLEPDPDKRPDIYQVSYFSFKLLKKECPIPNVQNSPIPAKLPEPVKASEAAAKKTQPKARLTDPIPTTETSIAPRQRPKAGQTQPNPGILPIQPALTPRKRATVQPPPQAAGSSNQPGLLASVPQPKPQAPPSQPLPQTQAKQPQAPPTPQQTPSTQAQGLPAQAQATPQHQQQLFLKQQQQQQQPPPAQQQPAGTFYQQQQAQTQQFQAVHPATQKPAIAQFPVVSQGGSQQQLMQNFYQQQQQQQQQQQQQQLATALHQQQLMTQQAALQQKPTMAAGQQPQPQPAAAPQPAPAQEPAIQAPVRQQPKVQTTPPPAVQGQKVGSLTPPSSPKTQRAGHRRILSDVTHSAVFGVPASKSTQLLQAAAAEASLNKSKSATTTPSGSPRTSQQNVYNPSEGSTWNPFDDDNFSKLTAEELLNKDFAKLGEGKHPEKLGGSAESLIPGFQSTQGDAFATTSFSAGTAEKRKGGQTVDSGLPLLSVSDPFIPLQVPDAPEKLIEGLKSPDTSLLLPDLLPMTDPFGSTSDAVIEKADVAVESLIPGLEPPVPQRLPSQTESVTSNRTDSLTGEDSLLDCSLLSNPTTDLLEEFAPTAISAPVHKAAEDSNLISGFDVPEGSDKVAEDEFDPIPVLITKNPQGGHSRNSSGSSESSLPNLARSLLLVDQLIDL
PDGFRA, sequence (P16234 whole entry): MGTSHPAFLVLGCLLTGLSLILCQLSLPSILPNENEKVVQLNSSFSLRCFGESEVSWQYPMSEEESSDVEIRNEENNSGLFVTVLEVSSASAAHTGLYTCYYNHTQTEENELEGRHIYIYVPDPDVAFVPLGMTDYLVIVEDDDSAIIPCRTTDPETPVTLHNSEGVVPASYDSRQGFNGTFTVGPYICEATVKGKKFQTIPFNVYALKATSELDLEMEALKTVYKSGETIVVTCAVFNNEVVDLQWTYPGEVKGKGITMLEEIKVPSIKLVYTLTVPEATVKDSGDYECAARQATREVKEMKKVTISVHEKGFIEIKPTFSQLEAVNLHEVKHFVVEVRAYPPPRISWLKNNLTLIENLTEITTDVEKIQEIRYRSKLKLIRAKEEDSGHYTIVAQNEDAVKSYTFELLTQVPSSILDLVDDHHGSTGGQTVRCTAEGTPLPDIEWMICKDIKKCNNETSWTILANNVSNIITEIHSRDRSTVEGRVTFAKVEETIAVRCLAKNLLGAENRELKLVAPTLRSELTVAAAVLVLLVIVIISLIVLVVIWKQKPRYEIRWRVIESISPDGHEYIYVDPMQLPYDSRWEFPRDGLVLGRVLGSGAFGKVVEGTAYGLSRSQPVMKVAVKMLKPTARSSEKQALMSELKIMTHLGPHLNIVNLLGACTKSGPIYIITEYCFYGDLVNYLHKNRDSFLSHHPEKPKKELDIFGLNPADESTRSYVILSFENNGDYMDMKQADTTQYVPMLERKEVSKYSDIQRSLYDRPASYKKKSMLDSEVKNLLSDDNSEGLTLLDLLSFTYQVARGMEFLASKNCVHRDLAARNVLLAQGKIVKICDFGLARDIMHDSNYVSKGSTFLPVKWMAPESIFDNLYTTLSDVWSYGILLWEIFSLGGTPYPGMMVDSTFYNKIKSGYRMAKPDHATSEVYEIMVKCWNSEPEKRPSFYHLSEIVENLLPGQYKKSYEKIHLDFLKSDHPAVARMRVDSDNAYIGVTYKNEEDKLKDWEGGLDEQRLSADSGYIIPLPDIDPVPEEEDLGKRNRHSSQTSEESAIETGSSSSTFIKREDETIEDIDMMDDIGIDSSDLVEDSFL
HIPK1, sequence (Q86Z02 whole entry): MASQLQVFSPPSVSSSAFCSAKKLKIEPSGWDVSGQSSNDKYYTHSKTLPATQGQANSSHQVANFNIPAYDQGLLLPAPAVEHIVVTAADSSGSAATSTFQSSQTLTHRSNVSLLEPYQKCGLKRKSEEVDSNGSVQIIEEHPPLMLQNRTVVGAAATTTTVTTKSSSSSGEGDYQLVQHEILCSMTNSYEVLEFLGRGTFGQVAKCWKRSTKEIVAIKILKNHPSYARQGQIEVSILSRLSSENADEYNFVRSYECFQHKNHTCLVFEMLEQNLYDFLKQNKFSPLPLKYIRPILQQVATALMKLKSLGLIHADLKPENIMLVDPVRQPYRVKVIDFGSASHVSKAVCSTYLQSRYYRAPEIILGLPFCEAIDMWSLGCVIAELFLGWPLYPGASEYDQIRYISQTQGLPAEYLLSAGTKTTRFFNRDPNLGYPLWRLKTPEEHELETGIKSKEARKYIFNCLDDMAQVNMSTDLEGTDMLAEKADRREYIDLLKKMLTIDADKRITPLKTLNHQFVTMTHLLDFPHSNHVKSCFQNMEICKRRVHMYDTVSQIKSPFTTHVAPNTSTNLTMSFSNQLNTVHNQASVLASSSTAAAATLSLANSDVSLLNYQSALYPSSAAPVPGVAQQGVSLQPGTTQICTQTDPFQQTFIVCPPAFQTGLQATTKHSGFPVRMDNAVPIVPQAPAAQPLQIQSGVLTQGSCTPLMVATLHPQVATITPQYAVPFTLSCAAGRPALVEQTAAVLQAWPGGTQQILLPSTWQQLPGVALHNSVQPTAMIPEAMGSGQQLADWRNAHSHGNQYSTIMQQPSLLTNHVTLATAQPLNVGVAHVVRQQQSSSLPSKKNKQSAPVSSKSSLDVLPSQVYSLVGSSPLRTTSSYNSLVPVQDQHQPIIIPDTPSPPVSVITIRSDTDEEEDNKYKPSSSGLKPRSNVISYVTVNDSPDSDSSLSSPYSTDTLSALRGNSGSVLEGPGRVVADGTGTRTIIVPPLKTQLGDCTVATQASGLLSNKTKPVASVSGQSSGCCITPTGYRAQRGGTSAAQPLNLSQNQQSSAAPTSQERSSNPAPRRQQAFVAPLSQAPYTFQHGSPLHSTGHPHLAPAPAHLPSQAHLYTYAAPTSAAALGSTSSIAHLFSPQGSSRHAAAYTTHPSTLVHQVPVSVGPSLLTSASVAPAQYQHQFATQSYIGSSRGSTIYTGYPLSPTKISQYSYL
SNRK, sequence (Q9NRH2 whole entry): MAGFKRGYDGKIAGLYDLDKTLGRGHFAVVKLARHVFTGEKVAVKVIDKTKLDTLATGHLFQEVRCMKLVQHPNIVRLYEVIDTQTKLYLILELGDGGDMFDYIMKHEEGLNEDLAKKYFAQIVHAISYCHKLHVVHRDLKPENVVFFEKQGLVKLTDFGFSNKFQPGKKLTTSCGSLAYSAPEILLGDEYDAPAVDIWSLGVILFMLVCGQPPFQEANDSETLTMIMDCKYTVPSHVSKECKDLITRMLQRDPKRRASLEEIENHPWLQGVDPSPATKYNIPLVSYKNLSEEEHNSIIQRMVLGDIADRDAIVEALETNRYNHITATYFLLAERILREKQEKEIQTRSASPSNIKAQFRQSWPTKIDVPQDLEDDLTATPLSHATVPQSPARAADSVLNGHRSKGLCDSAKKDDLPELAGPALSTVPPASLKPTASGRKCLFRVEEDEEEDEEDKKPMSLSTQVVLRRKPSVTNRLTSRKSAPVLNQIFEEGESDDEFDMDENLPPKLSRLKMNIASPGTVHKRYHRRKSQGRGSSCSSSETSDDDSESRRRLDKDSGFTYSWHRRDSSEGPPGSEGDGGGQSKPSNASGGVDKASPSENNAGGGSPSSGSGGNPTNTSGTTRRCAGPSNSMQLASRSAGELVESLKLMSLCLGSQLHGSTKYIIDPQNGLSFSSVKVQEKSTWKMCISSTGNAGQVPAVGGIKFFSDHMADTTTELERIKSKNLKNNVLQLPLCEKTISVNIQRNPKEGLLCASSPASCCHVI
T1 sequence (Q15349 whole entry): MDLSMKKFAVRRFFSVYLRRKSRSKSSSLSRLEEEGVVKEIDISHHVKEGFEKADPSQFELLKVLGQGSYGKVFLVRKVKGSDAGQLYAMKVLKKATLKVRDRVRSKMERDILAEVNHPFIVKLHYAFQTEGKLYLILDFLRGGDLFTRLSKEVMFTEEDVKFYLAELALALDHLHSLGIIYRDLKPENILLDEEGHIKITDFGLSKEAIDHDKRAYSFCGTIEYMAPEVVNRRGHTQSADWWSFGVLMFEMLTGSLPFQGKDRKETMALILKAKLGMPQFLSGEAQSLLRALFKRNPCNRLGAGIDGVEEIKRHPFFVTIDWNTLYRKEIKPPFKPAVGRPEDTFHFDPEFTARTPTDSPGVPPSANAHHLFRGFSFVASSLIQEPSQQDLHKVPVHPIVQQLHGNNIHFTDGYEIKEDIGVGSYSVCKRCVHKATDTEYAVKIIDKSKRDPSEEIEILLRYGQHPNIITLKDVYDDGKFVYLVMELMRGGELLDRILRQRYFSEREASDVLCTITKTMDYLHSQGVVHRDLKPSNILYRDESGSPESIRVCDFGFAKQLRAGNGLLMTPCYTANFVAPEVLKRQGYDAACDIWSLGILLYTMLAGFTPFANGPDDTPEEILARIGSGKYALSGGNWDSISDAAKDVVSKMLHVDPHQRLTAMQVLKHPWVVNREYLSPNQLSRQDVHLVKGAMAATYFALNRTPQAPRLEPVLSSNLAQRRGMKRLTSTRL

With `C[C@@H]1CC(=O)NN=C1c1ccc(NN=C(C#N)C#N)cc1` [levosimendan], the remaining binding at 10 µM in test [1] (setting [20]) came out at 95%; in test [4] (setting [20]), 73%; in [6] (setting [20]), 31%. Besides, the remaining binding at 100 µM in [1] (setting [21]) turned out to be 20%; in test [2], 100%; in test [3], 74%; in test [4] (setting [21]), 37%; in [5], 56%; in test [6] (setting [21]) it was 24%. Moreover, the remaining binding at 100 µM came to 100% in test [7]; 81% in [8]; 90% in test [9]; 100% in [10]; 71% in [11]; 76% in test [12]. For the same molecule, the remaining binding at 100 µM amounted to 92% in test [13]; 92% in test [14]; 100% in [15]; 100% in test [16]; 61% in test [17]; 63% in test [18]. Besides, in test [19], the remaining binding at 100 µM came out at 64%.
